Each structure is given as a SMILES string.

This passage reports Kd results from article PMC10877925 (Cell Communication and Signaling : CCS, 2024).

The target of assay [1] is T1, PfSpdsyn (Plasmodium falciparum, UniProt Q8II73).
T1 construct: gene PF3D7_1129000; 29-residue N-terminal deletion, pET28a vector, E. coli BL21; immobilised on NTA biosensor for BLI
T1 sequence (Q8II73 30-321): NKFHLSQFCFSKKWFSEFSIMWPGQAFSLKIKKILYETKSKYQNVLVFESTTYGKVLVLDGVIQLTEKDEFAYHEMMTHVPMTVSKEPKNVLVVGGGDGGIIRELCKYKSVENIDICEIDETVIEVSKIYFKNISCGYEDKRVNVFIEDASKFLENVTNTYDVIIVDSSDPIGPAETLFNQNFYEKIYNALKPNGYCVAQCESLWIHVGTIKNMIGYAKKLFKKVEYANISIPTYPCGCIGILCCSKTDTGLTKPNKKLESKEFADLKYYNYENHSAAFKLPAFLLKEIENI
Kind of assay: bio-layer interferometry. The assay is classed as binding. (In general: Biolayer interferometry detects binding as a change in optical thickness at a sensor tip.)

The target of assay [2] is T2, PfEGF1-α (Plasmodium falciparum, UniProt Q8I0P6).
T2 construct: gene PF3D7_1357000; recombinant, pET28a vector, E. coli BL21; immobilised on NTA biosensor for BLI
T2 sequence (Q8I0P6 1-443): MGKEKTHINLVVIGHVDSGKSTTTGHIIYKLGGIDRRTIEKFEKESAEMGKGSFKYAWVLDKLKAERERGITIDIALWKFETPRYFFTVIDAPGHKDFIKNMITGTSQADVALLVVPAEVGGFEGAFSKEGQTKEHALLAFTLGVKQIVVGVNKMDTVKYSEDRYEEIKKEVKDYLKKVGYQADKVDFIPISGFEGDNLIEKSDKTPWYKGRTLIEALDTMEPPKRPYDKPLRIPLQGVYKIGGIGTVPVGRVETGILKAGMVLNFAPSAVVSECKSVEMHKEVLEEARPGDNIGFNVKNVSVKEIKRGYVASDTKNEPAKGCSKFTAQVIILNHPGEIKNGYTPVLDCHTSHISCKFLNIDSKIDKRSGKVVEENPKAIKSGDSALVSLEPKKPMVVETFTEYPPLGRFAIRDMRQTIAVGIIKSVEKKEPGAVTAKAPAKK
Kind of assay: bio-layer interferometry. The format is binding.

One may read the Kd as a measure of binding affinity in units of concentration. A higher Kd goes with a looser complex. As to `CC1=C(O)C(=O)C=C2C1=CC=C1[C@@]2(C)CC[C@@]2(C)[C@@H]3C[C@](C)(C(=O)O)CC[C@]3(C)CC[C@]12C` [Celastrol], the results for the Kd in assay [1] and in assay [2] were 67.4 µM and 243 µM, respectively.
